Molecular target: human V1A receptor (Homo sapiens, UniProt P37288)
Experiment: V1A filter binding assay ([3H]-AVP binding to CHO-hV1A membranes)
Conditions: screen 1.0, [3H]-AVP binding to CHO-hV1A membranes
Protocol: 1.0 V1A Filter Binding Assay
Receptor binding assays were performed on cellular membranes prepared from CHO cells stably expressing the human V1A receptor, (CHO-hV1A). The CHO-hV1A cell line was kindly provided under a licensing agreement by Marc Thibonnier, Dept. of Medicine, Case Western Reserve University School of Medicine, Cleveland, Ohio. CHO-hV1A cells were routinely maintained at 37° C. in humidified atmosphere with 5% CO2 in DMEM/Hams F12 nutrient mix supplemented with 10% fetal bovine serum, 2 mM L-glutamine, 15 mM HEPES and 400 μg/ml G418. For bulk production of cell pellets, adherent CHO-hV1A cells were grown to confluency of 90-100% in 850 cm^2 roller bottles containing a medium of DMEM/Hams F12 Nutrient Mix supplemented with 10% fetal bovine serum, 2 mM L-glutamine and 15 mM HEPES. Confluent CHO-hV1A cells were washed with phosphate-buffered saline (PBS), harvested into ice cold PBS and centrifuged at 1,000 rpm. Cell pellets were stored at −80° C. until use. Cell pellets were thawed on ice and homogenised in membrane preparation buffer consisting of 50 mM Tris-HCl, pH 7.4, 5 mM MgCl2 and supplemented with a protease inhibitor cocktail, (Roche). The cell homogenate was centrifuged at 1000 rpm, 10 min, 4° C. and the supernatant was removed and stored on ice. The remaining pellet was homogenised and centrifuged as before. The supernatants were pooled and centrifuged at 25,000×g for 30 min at 4° C. […] Protein concentration was determined using Bradford reagent and BSA as a standard.
Protein linearity followed by saturation binding studies were performed on each new batch of membrane. […] Saturation binding studies were then performed using various concentrations of [^3H]-arginine vasopressin, [^3H]-AVP (0.05 nM-100 nM) and the Kd and Bmax determined.
Compounds were tested for their effects on [^3H]-AVP binding to CHO-hV1A membranes, (^3H-AVP; specific activity 65.5 Ci/mmol; NEN Life Sciences). […] The plates were sealed and counted on a TopCount Microplate Scintillation Counter (Packard Instruments). Non-specific binding (NSB) was determined using 1 μM unlabelled d(CH2)5Tyr(Me)AVP ([β-mercapto-β,β-cyclopentamethylenepropionyl,0-Me-Tyr^2,Arg^8]-vasopressin) (βMCPVP), (Sigma). The radioligand binding data was analysed using a four parameter logistic equation with the min forced to 0%. […] Specific binding was calculated by subtracting the mean NSB cpm from the mean Total cpm. For test compounds the amount of ligand bound to the receptor was expressed as % bound=(sample cpm−mean NSB cpm)/specific binding cpm×100. […] The inhibitory dissociation constant (Ki) was calculated using the Cheng-Prusoff equation: Ki=IC50/(1+[L]/Kd) where [L] is the concentration of ligand present in the well and Kd is the dissociation constant of the radioligand obtained from Scatchard plot analysis. […]

Chain of human V1A receptor (P37288 whole entry): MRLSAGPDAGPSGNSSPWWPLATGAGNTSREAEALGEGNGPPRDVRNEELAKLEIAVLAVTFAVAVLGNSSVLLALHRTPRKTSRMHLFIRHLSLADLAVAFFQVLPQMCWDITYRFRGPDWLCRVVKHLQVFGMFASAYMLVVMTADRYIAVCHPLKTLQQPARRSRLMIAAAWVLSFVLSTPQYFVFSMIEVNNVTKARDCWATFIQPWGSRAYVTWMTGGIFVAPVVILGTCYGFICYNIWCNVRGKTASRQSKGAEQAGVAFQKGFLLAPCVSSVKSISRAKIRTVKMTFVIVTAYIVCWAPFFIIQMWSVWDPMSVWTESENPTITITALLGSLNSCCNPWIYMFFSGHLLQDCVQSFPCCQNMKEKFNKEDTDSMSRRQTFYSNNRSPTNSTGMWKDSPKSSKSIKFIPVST

| Ki [nM] | SMILES |
| --- | --- |
| 2.98 | O=C(c1cc(F)cc(F)c1)N1CCC(c2nnc(Cn3nccn3)n2-c2ccc(Cl)cc2)CC1 [Example 165, {4-[4-(4-Chloro-phenyl)-5-[1,2,3]triazol-2-ylmethyl-4H-[1,2,4]triazol-3-yl]-piperidin-1-yl}-(3,5-difluoro-phenyl)-methanone] |
| 1.11 | O=C(c1n[nH]c2ccccc12)N1CCC(c2nnc(Cn3nccn3)n2-c2ccc(Cl)cc2)CC1 [Example 405, {4-[4-(4-Chloro-phenyl)-5-[1,2,3]triazol-2-ylmethyl-4H-[1,2,4]triazol-3-yl]-piperidin-1-yl}-(1H-indazol-3-yl)-methanone] |
| 1.99 | O=C(c1cc(Cl)ccc1F)N1CCC(c2nnc(Cn3nccn3)n2-c2ccc(Cl)cc2)CC1 [Example 399, (5-Chloro-2-fluoro-phenyl)-{4-[4-(4-chloro-phenyl)-5-[1,2,3]triazol-2-ylmethyl-4H-[1,2,4]triazol-3-yl]-piperidin-1-yl}-methanone] |
| 2.43 | O=C(c1ccc(C(F)F)cc1)N1CCC(c2nnc(Cn3nccn3)n2-c2ccc(Cl)cc2)CC1 [Example 206, {4-[4-(4-Chloro-phenyl)-5-[1,2,3]triazol-2-ylmethyl-4H-[1,2,4]triazol-3-yl]-piperidin-1-yl}-(4-difluoromethyl-phenyl)-methanone] |
